Assays:
[1] = biological target: Somatostatin receptor type 5 (Homo sapiens, UniProt P35346); assay: Binding affinity to human SST5R
[2] = biological target: Somatostatin receptor type 3 (Homo sapiens, UniProt P32745); assay: Binding affinity to human SST3R
[3] = biological target: Somatostatin receptor type 2 (Homo sapiens, UniProt P30874); assay: Binding affinity to human SST2R
Histamine H1 receptor = Histamine H1 receptor (Homo sapiens, UniProt P35367); assay: Binding affinity to human histamine H1 receptor
Chain of Histamine H1 receptor (P35367 whole entry): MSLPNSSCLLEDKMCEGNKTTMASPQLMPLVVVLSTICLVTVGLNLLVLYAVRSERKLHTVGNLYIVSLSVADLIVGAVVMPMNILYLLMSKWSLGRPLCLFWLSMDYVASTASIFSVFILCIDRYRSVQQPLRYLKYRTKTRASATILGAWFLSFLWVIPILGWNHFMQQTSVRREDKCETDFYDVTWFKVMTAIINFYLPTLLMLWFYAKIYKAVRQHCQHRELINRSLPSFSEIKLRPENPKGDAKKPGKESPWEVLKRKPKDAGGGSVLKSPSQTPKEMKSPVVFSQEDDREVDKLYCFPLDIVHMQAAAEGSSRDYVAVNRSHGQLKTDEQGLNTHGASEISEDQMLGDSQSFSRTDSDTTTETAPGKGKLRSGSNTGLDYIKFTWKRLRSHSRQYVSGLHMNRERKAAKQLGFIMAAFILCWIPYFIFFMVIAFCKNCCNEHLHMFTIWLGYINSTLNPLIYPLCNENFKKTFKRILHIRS

[4] = biological target: Somatostatin receptor type 1 (Homo sapiens, UniProt P30872); assay: Binding affinity to human SST1R
Chain of Somatostatin receptor type 1 (P30872 whole entry): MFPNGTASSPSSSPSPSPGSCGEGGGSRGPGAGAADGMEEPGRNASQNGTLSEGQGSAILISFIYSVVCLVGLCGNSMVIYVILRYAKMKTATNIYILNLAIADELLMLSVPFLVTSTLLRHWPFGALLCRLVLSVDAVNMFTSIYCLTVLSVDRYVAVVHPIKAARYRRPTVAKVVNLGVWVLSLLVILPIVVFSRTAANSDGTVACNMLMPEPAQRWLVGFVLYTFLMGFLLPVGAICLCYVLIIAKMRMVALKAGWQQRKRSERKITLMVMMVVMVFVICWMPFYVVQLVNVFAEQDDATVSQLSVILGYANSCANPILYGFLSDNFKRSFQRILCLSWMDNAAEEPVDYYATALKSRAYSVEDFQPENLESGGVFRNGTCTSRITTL

[5] = biological target: Voltage-gated inwardly rectifying potassium channel KCNH2 (Homo sapiens, UniProt Q12809); assay: Binding affinity to human ERG channel
Chain of Voltage-gated inwardly rectifying potassium channel KCNH2 (Q12809 whole entry): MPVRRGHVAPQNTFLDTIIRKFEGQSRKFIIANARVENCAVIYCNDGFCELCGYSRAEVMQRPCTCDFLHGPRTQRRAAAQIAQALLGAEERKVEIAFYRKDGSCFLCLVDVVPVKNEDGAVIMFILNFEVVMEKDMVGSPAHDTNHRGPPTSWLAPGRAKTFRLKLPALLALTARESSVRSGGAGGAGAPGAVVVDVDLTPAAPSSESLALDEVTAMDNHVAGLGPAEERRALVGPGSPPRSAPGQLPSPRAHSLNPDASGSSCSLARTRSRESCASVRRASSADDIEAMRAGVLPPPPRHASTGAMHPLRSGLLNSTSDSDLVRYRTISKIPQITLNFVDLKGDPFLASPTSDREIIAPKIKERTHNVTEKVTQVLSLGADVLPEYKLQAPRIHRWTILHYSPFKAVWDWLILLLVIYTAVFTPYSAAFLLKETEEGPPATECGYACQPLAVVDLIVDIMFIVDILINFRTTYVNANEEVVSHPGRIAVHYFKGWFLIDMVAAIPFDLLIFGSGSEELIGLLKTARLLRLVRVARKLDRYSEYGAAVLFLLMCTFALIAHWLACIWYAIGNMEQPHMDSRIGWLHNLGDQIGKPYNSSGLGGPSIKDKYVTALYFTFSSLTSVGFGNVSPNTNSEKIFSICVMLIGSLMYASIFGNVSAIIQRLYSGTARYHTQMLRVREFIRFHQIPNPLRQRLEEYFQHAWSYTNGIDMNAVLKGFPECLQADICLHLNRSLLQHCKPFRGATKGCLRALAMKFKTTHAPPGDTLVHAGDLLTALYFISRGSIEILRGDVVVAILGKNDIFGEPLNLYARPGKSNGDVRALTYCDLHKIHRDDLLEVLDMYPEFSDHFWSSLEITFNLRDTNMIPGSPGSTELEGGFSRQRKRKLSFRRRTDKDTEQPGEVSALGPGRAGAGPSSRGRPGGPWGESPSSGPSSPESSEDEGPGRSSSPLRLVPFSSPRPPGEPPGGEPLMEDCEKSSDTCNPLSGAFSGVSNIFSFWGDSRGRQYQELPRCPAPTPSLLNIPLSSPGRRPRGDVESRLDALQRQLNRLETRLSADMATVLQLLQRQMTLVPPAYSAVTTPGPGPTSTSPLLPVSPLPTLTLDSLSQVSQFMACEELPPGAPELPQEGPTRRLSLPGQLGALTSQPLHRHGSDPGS

Chain of Somatostatin receptor type 5 (P35346 whole entry): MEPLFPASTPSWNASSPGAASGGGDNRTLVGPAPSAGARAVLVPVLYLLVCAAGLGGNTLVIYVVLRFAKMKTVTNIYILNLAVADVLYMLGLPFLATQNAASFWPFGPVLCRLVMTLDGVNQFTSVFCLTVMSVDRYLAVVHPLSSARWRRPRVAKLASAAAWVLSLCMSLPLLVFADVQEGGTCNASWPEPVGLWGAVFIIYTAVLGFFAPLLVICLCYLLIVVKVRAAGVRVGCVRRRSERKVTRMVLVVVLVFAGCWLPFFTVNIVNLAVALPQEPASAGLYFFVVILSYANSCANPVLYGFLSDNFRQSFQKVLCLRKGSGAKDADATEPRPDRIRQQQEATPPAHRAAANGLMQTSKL
Chain of Somatostatin receptor type 3 (P32745 whole entry): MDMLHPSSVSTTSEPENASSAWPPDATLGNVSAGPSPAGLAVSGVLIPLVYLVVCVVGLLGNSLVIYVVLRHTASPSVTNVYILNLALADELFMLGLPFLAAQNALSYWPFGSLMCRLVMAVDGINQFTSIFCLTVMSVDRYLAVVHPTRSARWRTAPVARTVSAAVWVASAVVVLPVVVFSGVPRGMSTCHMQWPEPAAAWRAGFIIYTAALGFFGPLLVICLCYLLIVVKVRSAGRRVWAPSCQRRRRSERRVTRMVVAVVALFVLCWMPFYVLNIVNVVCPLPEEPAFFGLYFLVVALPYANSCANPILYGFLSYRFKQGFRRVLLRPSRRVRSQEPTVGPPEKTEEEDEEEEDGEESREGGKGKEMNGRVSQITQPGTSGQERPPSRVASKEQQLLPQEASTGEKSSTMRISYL
Chain of Somatostatin receptor type 2 (P30874 whole entry): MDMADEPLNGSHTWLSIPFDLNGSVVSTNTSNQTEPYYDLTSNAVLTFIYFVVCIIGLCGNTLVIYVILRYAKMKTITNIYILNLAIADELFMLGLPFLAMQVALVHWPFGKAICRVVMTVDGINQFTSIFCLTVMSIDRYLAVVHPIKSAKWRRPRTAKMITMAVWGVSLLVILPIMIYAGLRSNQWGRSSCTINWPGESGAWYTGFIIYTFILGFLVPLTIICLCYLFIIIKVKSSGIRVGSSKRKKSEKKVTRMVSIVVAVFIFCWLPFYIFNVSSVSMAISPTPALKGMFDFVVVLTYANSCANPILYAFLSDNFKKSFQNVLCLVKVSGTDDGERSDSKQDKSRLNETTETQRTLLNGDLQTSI

| Ki [1] [nM] | Ki (Histamine H1 receptor) [nM] | SMILES | other results |
| --- | --- | --- | --- |
| 40 |  | COc1cc(CN2CCC(NC(=O)c3cncc(C)c3)CC2)c(OC)c2ccccc12 |  |
| 20 | 270 | CCOc1cc(CN2CCC(NC(=O)c3cncc(C)c3)CC2)ccc1Cl | Ki [2]: > 10000 nM; Ki [3]: > 10000 nM; Ki [4]: 5100 nM |
| 60 | > 5000 | CCOc1cc(CN2CCC(NC(=O)c3cccc(S(C)(=O)=O)c3)CC2)ccc1Cl | IC50 [5]: 1300 nM |
| 120 |  | COc1cc(CN2CCC(NC(=O)c3ccccc3)CC2)c(OC)c2ccccc12 |  |
| 20 |  | COc1cc(CN2CCC(NC(=O)c3ccc(C(C)(C)C)cc3)CC2)c(OC)c2ccccc12 |  |

| SMILES | Ki [1] [nM] | Ki (Histamine H1 receptor) [nM] | other results |
| --- | --- | --- | --- |
| COc1cc(CN2CCC3(CC2)OC(=O)c2ccccc23)c(OC)c2ccccc12 | 1100 |  |  |

Reference: ChEMBL document CHEMBL1138334, “From astemizole to a novel hit series of small-molecule somatostatin 5 receptor antagonists via GPCR affinity profiling” (J Med Chem, 2007)
